Measured values reported in patent US20020025347A1, “Treatment of diabetic nephropathy and microalbuminuria” (Shiva Biomedical, LLC, priority 1999, published 2002).
Entries after “also recorded” stand apart in the source; their conditions may differ. Structures can show the parent of a compound that is named as a salt.

Legend:
[1] = system: STZ-induced diabetic rats; test: Treatment of STZ-induced diabetic rats with a salt of lithospermic acid; format: in vivo, Sprague-Dawley rats
Method: Sprague-Dawley rats (3-4 months of age, 250-300 g) were housed individually in sterile microisolator cages in a Specific Pathogen Free animal care facility. Rats were fed standard Rat chow and water was available ad libitum. Animals were maintained in temperature (25° C.) and humidity (40%) controlled rooms with a 12-h light/12 h dark cycle. Rats were randomly assigned to three experimental groups: Group I, nondiabetic control (n=10), Group II, untreated diabetic (n=10); and Group III, salt of lithospermic acid-treated diabetic (n=10). Insulin dependent diabetes was induced by a single intravenous injection of freshly prepared streptozotocin (STZ) (50 mg/kg in 0.1 M citrate buffer, pH 4.5) (Schmidt, R. E., et al., Diabetes 45(3):284-290 (1996)). A rat was considered diabetic when the nonfasting plasma glucose level was greater than about 17 mmol/L, 3 days following injection of STZ. Eight weeks following the administration of STZ, animals were treated with a salt of lithospermic acid by intramuscularly injections once daily (20 mg salt of lithospermic acid/kg body weight) for 8 weeks. Body weights were recorded weekly before and throughout the treatment period. Twenty-four hour urine and glycosylated hemoglobin levels were determined at 8, 12 and 16 weeks after injection of STZ. Urine samples were centrifuged (3000 rpm for 10 min) and the supernatant analyzed for creatinine and protein levels using standard techniques (Matsuo, Y., et al., Pharmacology 50:1-8 (1995)).

protein kinase C (PKC) = test: High glucose-induced protein kinase C activity in mesangial cells; format: cell-based, Murine; conditions: MES-13 cells, 30 mM glucose 5 days, then 25 or 50 μg/mL for 24 hours
Method: Murine renal mesangial cells were used in these experiments. The mesangial cells (MES-13) were cloned from transgenic mice. The twenty-fifth passage of the originally plated cells was used in the experiments. MES-13 cells were grown in Dulbecco's Modified Eagle's Medium (DMEM) containing 15% fetal bovine serum (FBS), 1% streptomycin-penicillin mixture, fungizone 0.2 μg/mL, 44 mM NaHCO3 and 14 mM HEPES at 37° C. in a humid atmosphere containing 5% CO2 and 95% air. Subcultures were seeded from confluent stock cultures by trypsinization in Hanks balanced salt solution containing 0.5 mM EDTA and 0.025% trypsin and grown in DMEM containing 15% FBS for 24 hr to near confluence (80%). Near confluent cells were incubated with serum-free DMEM to arrest cell growth and synchronize cell cultures. After 24 hr, the media was changed to serum-free DMEM containing 5.5 mM (normal) or 30 mM (high) glucose and cells cultured for 5 days. […] The amount of PKC in lysates of cells cultured in presence of high glucose (30 mM) and normal glucose (control, 5.5 mM) was determined using a commercially available kit (Upstate Biotechnology, Lake Placid N.Y.). […] Assay squares were placed into vials and radioactivity determined by scintillation counting. PKC activity was expressed as pmol/min/protein. Significant differences between group means were determined using the unpaired or paired Student's t-test.

TGF-β1 = test: High glucose-induced TGF-β1 secretion from mesangial cells (Western blot); format: cell-based, Murine; conditions: MES-13 cells, 30 mM glucose, 25 or 50 μg/mL for 24 hours
Method: (§1) Murine renal mesangial cells were used in these experiments. The mesangial cells (MES-13) were cloned from transgenic mice. The twenty-fifth passage of the originally plated cells was used in the experiments. MES-13 cells were grown in Dulbecco's Modified Eagle's Medium (DMEM) containing 15% fetal bovine serum (FBS), 1% streptomycin-penicillin mixture, fungizone 0.2 μg/mL, 44 mM NaHCO3 and 14 mM HEPES at 37° C. in a humid atmosphere containing 5% CO2 and 95% air. Subcultures were seeded from confluent stock cultures by trypsinization in Hanks balanced salt solution containing 0.5 mM EDTA and 0.025% trypsin and grown in DMEM containing 15% FBS for 24 hr to near confluence (80%). Near confluent cells were incubated with serum-free DMEM to arrest cell growth and synchronize cell cultures. After 24 hr, the media was changed to serum-free DMEM containing 5.5 mM (normal) or 30 mM (high) glucose and cells cultured for 5 days. Cells were then incubated with a salt of lithospermic acid at 25 μg/mL or 50 μg/mL for 24 hours. […] Protein concentration in cell lysate and culture media samples was determined by the method of Lowry with BSA as a standard (Lowry, O. H., et al., J. Biol. Chem. 193:265-275 (1951)). […] After washing, the antigen-antibody complexes were detected by enhanced chemiluminesence (Amersham International, England) and quantitated densitometry.

fibronectin = test: High glucose-induced fibronectin synthesis and secretion from mesangial cells (Western blot); format: cell-based, Murine; conditions: MES-13 cells, 30 mM glucose, 50 μg/mL
Method: as §1

ERK2 = test: High glucose-induced phosphorylation of ERK in mesangial cells (Western blot); format: cell-based, Murine; conditions: MES-13 cells, 30 mM glucose, 50 μg/mL
Method: as §1

MEK2 = test: High glucose-induced phosphorylation of MEK in mesangial cells (Western blot); format: cell-based, Murine; conditions: MES-13 cells
Method: as §1

[2] = treated diabetic rats, 20 mg/kg intramuscularly once daily for 8 weeks

Question: With `O=C(/C=C/c1ccc(O)c2c1[C@H](C(=O)O)[C@@H](c1ccc(O)c(O)c1)O2)O[C@H](Cc1ccc(O)c(O)c1)C(=O)O` [salt of lithospermic acid] as the compound, how does the “effect on blood glucose levels in diabetic rats” value ([1]; 20 mg/kg intramuscularly once daily for 8 weeks) read?
Answer: did not significantly lower blood glucose levels

Question: What about the “urinary protein levels (FIG. 1)” value ([1]; 20 mg/kg intramuscularly once daily for 8 weeks, started 8 weeks after STZ, compared to untreated diabetic and nondiabetic control rats) of the same compound?
Answer: significantly (p<0.001) lowered urinary protein levels; also recorded: approached the levels observed in control, nondiabetic rats

Question: And the HCT ([1]; treated diabetic rats)?
Answer: 37.44 ± 3.13%

Question: And the Hb ([1]; treated diabetic rats)?
Answer: 14.44 ± 0.87 g/dL

Question: And the MCH ([1]; treated diabetic rats)?
Answer: 21.13 ± 0.69 pg

Question: And the WBC ([1]; treated diabetic rats)?
Answer: 11.95 ± 4.66 × 10(3)

Question: And the Albumin [1, 2]?
Answer: 1.75 ± 0.31 g/dL

Question: What about the BUN [1, 2] of the same compound?
Answer: 28.1 ± 5.32 mg/dL

Question: And the Bilirubin [1, 2]?
Answer: 1.14 ± 1.10 mg/dL

Question: What about the Cholesterol [1, 2] of the same compound?
Answer: 47 ± 7.35 mg/dL

Question: What about the Cl [1, 2] of the same compound?
Answer: 101.5 ± 2.65 mmol/L

Question: And the Creatinine [1, 2]?
Answer: 0.6 ± 0.12 mg/dL

Question: And the “D. Bil” value [1, 2]?
Answer: 0.67 ± 0.7 mg/dL

Question: And the GOT [1, 2]?
Answer: 239 ± 157 U/L

Question: What about the GPT [1, 2] of the same compound?
Answer: 102.75 ± 73.74 U/L

Question: And the Glucose [1, 2]?
Answer: 508.5 ± 160.4 mg/dL

Question: What about the K [1, 2] of the same compound?
Answer: 19.53 ± 12.8 mmol/L

Question: And the Na [1, 2]?
Answer: 130.3 ± 6.24 mmol/L

Question: And the “Serum Protein” value [1, 2]?
Answer: 6.28 ± 0.54 g/dL

Question: What about the “Uric Acid” value [1, 2] of the same compound?
Answer: 1.6 ± 1.07 mg/dL

Question: And the r-GTP [1, 2]?
Answer: 2.75 ± 2.75 U/L

Question: And the HbAlc ([1]; treated diabetic rats, p < 0.01 vs. control)?
Answer: 8.59 ± 1.59 %

Question: What about the “PKC activity in high glucose (FIG. 2)” value (protein kinase C (PKC)) of the same compound?
Answer: decreased PKC activity

Question: And the “TGF-β1 secretion in high glucose (FIG. 3)” value (TGF-β1)?
Answer: decreased high glucose-induced TGF-β1 secretion

Question: And the “fibronectin levels in high glucose (FIG. 4)” value (fibronectin)?
Answer: decreased fibronectin levels to about that of control levels

Question: And the “phosphorylated ERK2 in high glucose (FIG. 5)” value (ERK2)?
Answer: decrease in phosphorylated ERK2 to about control levels

Question: And the “phosphorylated MEK2 (MEK P) in high glucose (FIG. 7)” value (MEK2; high glucose, 50 μg/mL)?
Answer: approached control levels

Question: What about the “total amount of MEK2 (MEK2-T, phosphorylated and nonphosphorylated) (FIG. 8)” value (MEK2; regardless of glucose concentration or treatment) of the same compound?
Answer: remained constant
